{"source": "patent US20110224297A1", "about": "“Methods of administering prostratin and structural analogs thereof” (priority 2008, published 2011)", "key": {"[1]": {"assay": "Stability in PBS (phosphate buffer saline)", "type": "physicochemical", "experimental": "Prostratin is stable in plasma and buffer as well as in the stability formulation (see below) developed for in vivo studies in mice. Stability tests for prostratin in mouse and monkey plasma were done using two concentration (1 and 10 mg/ml) and two temperatures (Room Temperature (RT) and 37° C.). The only loss of drug occurred in mouse plasma after 24 hr incubation at 37° C. This represented only 14% decrease in parent drug peak area over this time frame. Prostratin is stable in PBS (phosphate buffer saline) at pH 2 and pH 7."}, "[2]": {"assay": "Pharmacokinetics following intravenous and oral administration to rats", "type": "in vivo", "conditions": "for Vd / half-life / bioavailability: male; for bioavailability: three male rats", "experimental": "In order to find out the best route of administration and the correct concentration of prostratin, the drug was administered as an intravenous infusion over three hours as well as a single and twice oral administration to 3 groups of rats. The goal of this experiment was to find out if greater amounts of prostratin can be administered over a longer period of time. This would enable obtaining median higher concentrations in the blood for a longer period of time that would be close to effective concentration found in in vitro studies."}, "[3]": {"test_system": "Salmonella typhimurium tester strains TA98, TA100, TA1535, and TA1537", "assay": "Salmonella/mammalian-microsome reverse mutation assay with confirmatory assay", "type": "cell-based", "conditions": "100 to 5000 μg per plate; presence or absence of S9", "from_the_text": "(§1) The objective of this study was to evaluate the test article, prostratin, for the ability to induce reverse mutations either in the presence or absence of mammalian microsomal enzymes at 1) the histidine locus in the genome of several strains of Salmonella typhimurium and at 2) the tryptophan locus of Escherichia coli tester strain WP2uvrA.\n(§2) The doses tested in the mutagenicity assay were selected based on the results of a dose range finding study using tester strains TA100 and WP2uvrA and ten doses of test article ranging from 6.67 to 5000 μg per plate, one plate per dose, both in the presence and absence of S9 mix.\n(§3) The tester strains used in the mutagenicity assay were Salmonella typhimurium tester strains TA98, TA100, TA1535, and TA1537 and Escherichia coli tester strain WP2uvrA. The assay was conducted with five doses of test article in both the presence and absence of S9 mix along with concurrent vehicle and positive controls using three plates per dose. The doses tested were 100, 333, 1000, 3330, and 5000 μg per plate in both the presence and absence of S9 mix. The results of the initial mutagenicity assay were confirmed in an independent experiment."}, "[4]": {"test_system": "Escherichia coli tester strain WP2uvrA", "assay": "Escherichia coli/mammalian-microsome reverse mutation assay with confirmatory assay", "type": "cell-based", "conditions": "100 to 5000 μg per plate; presence or absence of S9", "from_the_text": "as §1, §2, §3"}, "[5]": {"assay": "In vitro metabolism in human liver microsomes", "type": "in vitro ADME", "from_the_text": "(§4) In vitro metabolism of prostratin was investigated using mouse, rat, monkey, and human liver microsomes (Gentest). […] Attempts to identify the metabolite by LC/MS/MS were unsuccessful due to the low amounts present in the reaction mixtures (FIG. 1)."}, "PBMCs": {"test_system": "PBMCs", "conditions": "alone or in conjunction with other activators; cited from earlier work"}, "[6]": {"assay": "Solubility limit after dosing in culture medium", "type": "physicochemical", "conditions": "plasma or biological fluid, kinetic from dmso stock, dosing volume of 1%", "experimental": "Dimethylsulfoxide (DMSO) was the vehicle of choice for this study. […] The stock solution and its dilutions were dosed using a dosing volume of 1% (10 μL/ml) and the vehicle control cultures were treated with 10.0 μL/ml of DMSO."}, "[7]": {"assay": "In vitro metabolism in monkey liver microsomes", "type": "in vitro ADME", "from_the_text": "as §4"}, "Fisher rats": {"test_system": "Fisher rats", "assay": "Single-dose range-finding study in rats", "type": "in vivo", "conditions": "for mortality (died on Day 1 or Day 2): male Fisher rats", "experimental": "(§5) A single bolus dose of prostratin (0, 0.05, 0.1, 0.2, 0.4, and 0.8 mg/kg which correspond to 0, 0.3, 0.6, 1.2, 2.4, and 4.8 mg/m^2) was administered to Fisher rats (3 males/group) to determine the maximally tolerated dose and relative drug toxicity. […] Clinical signs of toxicity included decreased activity, prostration, tremors, and altered respiratory rate (decreased in some cases, increased in others). […] In the 0.4 mg/kg dose group, ALT and AST serum levels were 2- and 3-fold higher, respectively, than group mean ALT and AST values for control rats, and potassium level was decreased in 61% of the value obtained for control group animals. […] The Maximum Tolerated Dose (MTD) in rats is between 0.2-0.4 mg/kg dose of prostratin."}, "[8]": {"assay": "Single-dose range-finding study in rats", "type": "in vivo, Fisher rats", "conditions": "male, Fisher, rat, in vivo, intravenous; rats, single bolus dose; read-out: Maximum Tolerated Dose (MTD)", "experimental": "as §5"}, "rhesus macaque monkeys": {"test_system": "rhesus macaque monkeys", "assay": "Preliminary pharmacokinetic study in monkeys (mortality)", "type": "in vivo", "conditions": "intravenous bolus 0.8 mg/kg; respiratory failure shortly after injection", "experimental": "During a preliminary pharmacokinetic study, rhesus macaque monkeys were administered an intravenous bolus of prostratin at 0.4 mg/kg and 0.8 mg/kg. The monkey in 0.8 mg/kg died due a respiratory failure shortly after injection. Plasma samples from these monkeys were sent to NIH and plasma concentration of prostratin was measure along with other samples at NIH using the LC/MS/MS assay."}, "[9]": {"conditions": "all three females, 1.2-mg/kg oral dose, males 2.4 mg/kg"}, "[10]": {"conditions": "female Animal No. C24047, 0.8 mg/kg i.v. infusion"}, "[11]": {"conditions": "female Animal No. C24048, 0.8 mg/kg i.v. infusion"}, "[12]": {"conditions": "female Animal No. C24049, 0.8 mg/kg i.v. infusion"}, "[13]": {"conditions": "female Animal No. C24050, 1.2-mg/kg oral dose, males 2.4 mg/kg"}, "[14]": {"conditions": "female Animal No. C24055, Group 3"}}, "note": "Where two headings read alike, the source gives them in different places."}
{"smiles": "CC(=O)O[C@@]12C[C@@H](C)[C@@]3(O)[C@@H](C=C(CO)C[C@]4(O)C(=O)C(C)=C[C@@H]34)[C@@H]1C2(C)C", "note": "[prostratin, 12-deoxyphorbol 13-acetate]", "values": [{"measurement": "stability in PBS", "setting": "[1]; pH 2", "result": "stable"}, {"measurement": "stability in PBS", "setting": "[1]; pH 7", "result": "stable"}, {"measurement": "mean AUC0-1.5 relative to mean value for the males", "setting": "[2]; [9]", "result": "~5.5", "unit": "fold"}, {"measurement": "mean Cmax relative to mean value for the males", "setting": "[2]; [9]", "result": "approximately 6.2 fold"}, {"measurement": "AUC0-2 relative to mean AUC0-2 for the males", "setting": "[2]; [10]", "result": "approximately 4.2 fold"}, {"measurement": "plasma concentration at approximately 2 hours relative to mean male Cmax", "setting": "[2]; [10]", "result": "approximately 3.8 fold"}, {"measurement": "AUC0-2 relative to mean AUC0-2 for the males", "setting": "[2]; [11]", "result": "approximately 1.4 fold"}, {"measurement": "plasma concentration at approximately 2 hours relative to mean male Cmax", "setting": "[2]; [11]", "result": "approximately 1.6 fold"}, {"measurement": "AUC0-3.083 relative to mean value for the males", "setting": "[2]; [12]", "result": "~2.6", "unit": "fold"}, {"measurement": "Cmax relative to mean value for the males", "setting": "[2]; [12]", "result": "approximately 3.7 fold"}, {"measurement": "AUC0-1.5 relative to mean value for the males", "setting": "[2]; [13]", "result": "~8.2", "unit": "fold"}, {"measurement": "Cmax relative to mean value for the males", "setting": "[2]; [13]", "result": "approximately 8.9 fold"}, {"measurement": "AUC0-4 relative to mean value for the males", "setting": "[2]; female Animal No. C24052, 1.2-mg/kg oral dose, males 2.4 mg/kg", "result": "approximately 9.6 fold"}, {"measurement": "Cmax relative to mean value for the three males", "setting": "[2]; female Animal No. C24055, 1.8 mg/kg then 1.0 mg/kg oral, Group 3", "result": "approximately 6.0 fold"}, {"measurement": "AUC0-1.5 relative to mean value for the three males", "setting": "[2]; [14]", "result": "~5.9", "unit": "fold"}, {"measurement": "AUC0-4 relative to mean value for the three males", "setting": "[2]; [14]", "result": "~8.2", "unit": "fold"}, {"measurement": "AUC0-10 relative to mean AUC0-10 for the males", "setting": "[2]; last female of Group 2, 1.2-mg/kg oral dose, males 2.4 mg/kg", "result": "approximately 6.1 fold"}, {"measurement": "increase in exposure (mean AUC0-10) of 1.8-mg/kg BID versus single 2.4-mg/kg oral dose", "setting": "[2]; male rats, Groups 3 and 2", "result": "approximately 1.5 fold"}, {"measurement": "Vd", "setting": "[2]; rat, plasma, iv, 0.8 mg/kg, male rats, 0.8 mg/kg i.v. infusion, read-out: mean Vss", "result": 2.22, "unit": "L/kg"}, {"measurement": "Vd", "setting": "[2]; rat, plasma, iv, 0.8 mg/kg, male rats, 0.8 mg/kg i.v. infusion, read-out: mean Vz", "result": 6.41, "unit": "L/kg"}, {"measurement": "half-life", "setting": "[2]; rat, plasma, iv, 0.8 mg/kg, male rats, after 3-hour intravenous infusion 0.8 mg/kg, read-out: mean t1/2 (converted)", "result": 2.49, "unit": "h"}, {"measurement": "half-life", "setting": "[2]; rat, plasma, po, 1.8 mg/kg, male Animal No. C24046, Group 3, 1.8 mg/kg BID oral, read-out: t1/2 (converted)", "result": 7.47, "unit": "h"}, {"measurement": "half-life", "setting": "[2]; rat, plasma, po, 1.8 mg/kg, male rats, 1.8 mg/kg BID oral, after the second dose, read-out: mean t1/2 (converted)", "result": 4.07, "unit": "h"}, {"measurement": "half-life", "setting": "[2]; rat, plasma, po, 2.4 mg/kg, male rats, single 2.4-mg/kg oral dose, read-out: mean t1/2 (converted)", "result": 2.08, "unit": "h"}, {"measurement": "bioavailability", "setting": "[2]; rat, plasma, po, 2.4 mg/kg, single 2.4-mg/kg oral dose, read-out: Bioavailability (% F), mean", "result": 13.3, "unit": "%"}, {"measurement": "bioavailability", "setting": "[2]; rat, plasma, po, 2.4 mg/kg, single 2.4-mg/kg oral dose, read-out: Bioavailability (% F), range", "result": "7.7 to 23.1", "unit": "%"}, {"measurement": "clearance", "setting": "[2]; rat, plasma, iv, male rats, 0.8 mg/kg i.v. infusion, read-out: mean CL (converted)", "result": 34.2, "unit": "mL/min/kg"}, {"measurement": "concentration at 4 h", "setting": "[2]; rat, plasma, male rats, 1.8 mg/kg oral, Group 3, read-out: mean plasma concentration just prior to the second oral dose at 4 hours", "result": 17.9, "unit": "ng/mL"}, {"measurement": "Cmax", "setting": "[2]; rat, plasma, male rats, 0.8-mg/kg intravenous infusion over 3 hours", "result": 159, "unit": "ng/mL"}, {"measurement": "Cmax", "setting": "[2]; rat, plasma, male rats, 1.8-mg/kg oral doses BID, following the second dose", "result": 55.1, "unit": "ng/mL"}, {"measurement": "Tmax", "setting": "[2]; rat, plasma, male rats, 1.8-mg/kg oral doses BID, read-out: time at which Cmax was observed", "result": "0.25 to 0.5", "unit": "h"}, {"measurement": "Cmax", "setting": "[2]; rat, plasma, male rats, single 2.4-mg/kg oral dose", "result": 49.7, "unit": "ng/mL"}, {"measurement": "concentration at 4 h", "setting": "[2]; rat, plasma, male rats, single 2.4-mg/kg oral dose, Group 2, read-out: mean plasma concentration at 4 hours postdose", "result": 11.5, "unit": "ng/mL"}, {"measurement": "mean number of revertants per plate", "setting": "[3]", "result": "did not cause a positive increase"}, {"measurement": "mean number of revertants per plate", "setting": "[4]", "result": "did not cause a positive increase"}, {"measurement": "metabolism (time-dependent loss of parent compound)", "setting": "[5]", "result": "substantially less"}, {"measurement": "individuals on suppressive HAART whose PBMCs showed stimulated HIV-1 production", "setting": "PBMCs", "result": "4 out of 6"}, {"measurement": "solubility", "setting": "[6]", "result": "< 3500", "unit": "µg/mL"}, {"measurement": "metabolism (time-dependent loss of parent compound)", "setting": "[7]", "result": "greatest"}, {"measurement": "albumin (ALB) level relative to control", "setting": "Fisher rats; 0.2 mg/kg dose group", "result": 88, "unit": "%"}, {"measurement": "ALT serum level versus control", "setting": "Fisher rats; 0.4 mg/kg dose group", "result": 2, "unit": "fold"}, {"measurement": "AST serum level versus control", "setting": "Fisher rats; 0.4 mg/kg dose group", "result": 3, "unit": "fold"}, {"measurement": "albumin (ALB) level relative to control", "setting": "Fisher rats; 0.4 mg/kg dose group", "result": 76, "unit": "%"}, {"measurement": "potassium level relative to control", "setting": "Fisher rats; 0.4 mg/kg dose group", "result": 61, "unit": "%"}, {"measurement": "reversibility of adverse events", "setting": "Fisher rats; PLT, ALT, AST, ALB within normal range by day 8", "result": "reversible"}, {"measurement": "increase in neutrophile counts", "setting": "Fisher rats; day 3, 0.4 mg/kg dose group", "result": 1.7, "unit": "fold"}, {"measurement": "decrease in platelet (PLT) counts compared to control", "setting": "Fisher rats; day 3, 0.4 and 0.2 mg/kg dose groups", "result": "62-68%"}, {"measurement": "mortality (died on Day 1 or Day 2)", "setting": "Fisher rats; single bolus 0.4 mg/kg", "result": "two of the three"}, {"measurement": "mortality (died on Day 1 or Day 2)", "setting": "Fisher rats; single bolus 0.8 mg/kg", "result": "3/3"}, {"measurement": "MTD", "setting": "[8]", "result": "0.2 to 0.4", "unit": "mg/kg"}, {"measurement": "mortality", "setting": "rhesus macaque monkeys", "result": "died"}]}
